Laboratory results published in US20240287042A1, “NOVEL COMPOUND HAVING INHIBITORY ACTIVITY AGAINST PENDRIN, AND PHARMACEUTICAL USES THEREOF” (UIF (University Industry Foundation), Yonsei University, priority 2021, published 2024).

Target: T1, human wild-type (WT)-pendrin (Homo sapiens, UniProt O43511)
T1 construct: expressed in transfected cells
T1 sequence (O43511 1-780): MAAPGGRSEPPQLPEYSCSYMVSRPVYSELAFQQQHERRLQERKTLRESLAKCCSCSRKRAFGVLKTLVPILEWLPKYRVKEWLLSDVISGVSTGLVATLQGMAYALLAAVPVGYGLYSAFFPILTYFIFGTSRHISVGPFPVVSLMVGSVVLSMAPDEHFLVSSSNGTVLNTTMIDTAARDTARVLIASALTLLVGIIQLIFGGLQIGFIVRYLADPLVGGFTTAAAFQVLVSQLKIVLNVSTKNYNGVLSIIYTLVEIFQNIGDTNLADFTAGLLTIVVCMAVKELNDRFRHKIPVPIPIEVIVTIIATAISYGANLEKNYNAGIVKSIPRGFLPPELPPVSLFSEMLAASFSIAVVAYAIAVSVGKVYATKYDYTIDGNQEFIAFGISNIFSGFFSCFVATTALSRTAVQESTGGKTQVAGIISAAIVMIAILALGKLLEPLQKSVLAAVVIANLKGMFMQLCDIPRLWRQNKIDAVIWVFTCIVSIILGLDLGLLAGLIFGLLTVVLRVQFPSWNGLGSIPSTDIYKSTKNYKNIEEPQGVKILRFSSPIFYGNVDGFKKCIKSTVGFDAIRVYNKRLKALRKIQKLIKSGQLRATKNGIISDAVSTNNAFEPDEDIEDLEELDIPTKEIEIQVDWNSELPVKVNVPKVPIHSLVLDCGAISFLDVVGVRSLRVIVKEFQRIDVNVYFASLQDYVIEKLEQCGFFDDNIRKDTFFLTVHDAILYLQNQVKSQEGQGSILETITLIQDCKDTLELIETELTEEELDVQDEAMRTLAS
Test: Pendrin Cl−/I− exchange inhibitory activity, YFP fluorescence in CHO-K1 cells
Format: cell-based
Conditions: for IC50: CHO-K1-YFP cells, read-out: IC50 of pendrin-induced Cl−/I− anion exchange; for IC50 / Inhibition of pendrin-induced Cl−/I− anion exchange: FIG. 1; for inhibition at 1 µM / inhibition at 3 µM / inhibition at 10 µM / inhibition at 30 µM / inhibition at 100 µM: CHO-K1; for inhibition at 1 µM: compound concentration 1 μM; for inhibition at 3 µM: compound concentration 3 μM; for inhibition at 10 µM: compound concentration 10 μM; for inhibition at 30 µM: compound concentration 30 μM; for inhibition at 100 µM: compound concentration 100 μM
Method in brief: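 CHO-K1 cells stably co-expressing human WT pendrin and YFP-F46L/H148Q/I152L were preincubated with compound (1–100 µM, or 50 µM single dose) for 10 min at 37°C in HEPES buffer, pH 7.4. NaI solution was then injected and YFP quenching was recorded; the initial iodide influx rate came from the initial fluorescence slope.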

Row | Structure (SMILES) | IC50 [nM] | inhibition at 1 µM [%] | inhibition at 3 µM [%] | inhibition at 10 µM [%] | inhibition at 30 µM [%] | inhibition at 100 µM [%] | Inhibition of pendrin-induced Cl−/I− anion exchange | Efficacy on pendrin relative to YPI-H05 (ratio of IC50 values)
1 | Cc1ccc2[nH]c(C(=O)O)c(CC(=O)N3CCN(c4c(C)cccc4Cl)CC3)c2c1 [YPI-A4948, 3-(2-(4-(2-Chloro-6-methylphenyl)piperazin-1-yl)-2-oxoethyl)-5-methyl-1H-indole-2-carboxylic acid] | 570 | 70.5 | 93.6 | 100 | 100 | 100 | in a concentration-dependent manner | approximately 5 times
2 | Cc1ccc(C)c(N2CCN(C(=O)Cc3c(C(=O)O)[nH]c4ccc(Cl)cc34)CC2)c1 [YPI-H05, 5-chloro-3-(2-(4-(2,5-dimethylphenyl)piperazin-1-yl-)-2-oxoethyl)-1H-indole-2-carboxylic acid] | 2700 | < 20 | 24.6 | 67.9 | 95.4 | 96.5 | in a concentration-dependent manner | –
